Source: patent publication US11584747B2, “Substituted pyridopyrimidinonyl compounds useful as T cell activators” (BRISTOL-MYERS SQUIBB COMPANY, priority 2019, dated 2023)
Where two headings read alike, the source gives them in different places.

Key:
human DGKα = human DGKα (Homo sapiens (Human), UniProt P23743); assay: DGKα ADPGLO assay (detergent/lipid micelle substrate); type: biochemical
Description: DGK Alpha ADPGLO (Truncated) IC50 (uM)
The detergent/lipid micelle was prepared by combining 15 g phosphatidylserine (Avanti 840035P) and 1 g diacylglycerol (8008110) and dissolving into 150 mL chloroform in a 2 L round bottom flask. Chloroform was removed under high vacuum by rotary evaporation. […] The lipid/detergent solution was split into 5 mL aliquots and stored at −80° C.

[1] = test system: human venous whole blood (IFN-γ); assay: Human whole blood IFN-γ assay; type: cell-based
Description: Human venous whole blood (22.5 μL per well), obtained from healthy donors, was pre-treated with compounds for one hour at 37° C. in a humidified 95% air/5% CO2 incubator. The blood was stimulated with 2.5 μL anti-human CD3 and anti-CD28 mAb at a final concentration of 1 μg/mL each for 24 hours at 37° C. IFN-γ in the supernatants was measured using AlphLISA kit (Cat #AL217).

human DGKζ = human DGKζ (Homo sapiens (Human), UniProt Q13574); assay: DGKζ LIPGLO assay (extruded liposome substrate, ADP-Glo luminescence); type: biochemical
Chain of human DGKζ (Q13574 other isoform, or with tags, fused parts or gaps): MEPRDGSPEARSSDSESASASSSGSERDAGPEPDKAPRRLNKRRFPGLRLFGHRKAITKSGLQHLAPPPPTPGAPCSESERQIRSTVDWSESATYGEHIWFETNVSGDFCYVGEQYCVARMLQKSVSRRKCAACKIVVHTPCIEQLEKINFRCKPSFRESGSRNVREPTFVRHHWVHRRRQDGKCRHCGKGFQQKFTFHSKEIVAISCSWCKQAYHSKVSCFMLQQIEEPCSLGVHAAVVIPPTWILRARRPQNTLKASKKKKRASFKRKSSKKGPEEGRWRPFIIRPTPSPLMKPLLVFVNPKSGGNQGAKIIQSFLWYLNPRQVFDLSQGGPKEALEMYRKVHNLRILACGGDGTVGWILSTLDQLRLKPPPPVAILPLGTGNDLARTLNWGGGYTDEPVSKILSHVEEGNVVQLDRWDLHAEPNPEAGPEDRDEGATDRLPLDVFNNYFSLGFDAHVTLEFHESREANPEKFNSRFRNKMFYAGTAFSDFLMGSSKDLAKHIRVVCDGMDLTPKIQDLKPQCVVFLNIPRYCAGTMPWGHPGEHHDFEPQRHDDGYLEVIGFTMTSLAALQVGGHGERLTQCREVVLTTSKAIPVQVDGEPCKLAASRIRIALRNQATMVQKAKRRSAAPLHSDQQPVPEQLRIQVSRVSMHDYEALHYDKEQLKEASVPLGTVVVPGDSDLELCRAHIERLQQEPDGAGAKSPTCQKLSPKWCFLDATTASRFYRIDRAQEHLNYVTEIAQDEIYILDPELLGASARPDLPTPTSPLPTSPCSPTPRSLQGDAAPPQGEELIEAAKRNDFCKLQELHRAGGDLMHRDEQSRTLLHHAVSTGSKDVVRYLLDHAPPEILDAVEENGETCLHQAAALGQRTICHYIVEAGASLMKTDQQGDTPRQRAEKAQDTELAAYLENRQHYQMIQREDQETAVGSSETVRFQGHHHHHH

[2] = truncated DGK alpha, read-out: DGK alpha ADPGLO (Truncated) IC50
[3] = whole blood, normalized to 3 μM reference compound as 100% activation, read-out: IFN-γ Whole Blood Normalized EC50
[4] = liposome assay, read-out: DGK zeta LIPGLO IC50
[5] = Homo sapiens, whole blood, normalized to 3 μM reference compound as 100% activation, read-out: IFN-γ Whole Blood Normalized EC50
[6] = ADPGLO assay, read-out: DGK alpha ADPGLO IC50
[7] = liposome (LIPGLO) assay, read-out: DGK zeta (liposome assay) IC50

Chain of human DGKα (P23743 whole entry, looked up, the tested form may be a part): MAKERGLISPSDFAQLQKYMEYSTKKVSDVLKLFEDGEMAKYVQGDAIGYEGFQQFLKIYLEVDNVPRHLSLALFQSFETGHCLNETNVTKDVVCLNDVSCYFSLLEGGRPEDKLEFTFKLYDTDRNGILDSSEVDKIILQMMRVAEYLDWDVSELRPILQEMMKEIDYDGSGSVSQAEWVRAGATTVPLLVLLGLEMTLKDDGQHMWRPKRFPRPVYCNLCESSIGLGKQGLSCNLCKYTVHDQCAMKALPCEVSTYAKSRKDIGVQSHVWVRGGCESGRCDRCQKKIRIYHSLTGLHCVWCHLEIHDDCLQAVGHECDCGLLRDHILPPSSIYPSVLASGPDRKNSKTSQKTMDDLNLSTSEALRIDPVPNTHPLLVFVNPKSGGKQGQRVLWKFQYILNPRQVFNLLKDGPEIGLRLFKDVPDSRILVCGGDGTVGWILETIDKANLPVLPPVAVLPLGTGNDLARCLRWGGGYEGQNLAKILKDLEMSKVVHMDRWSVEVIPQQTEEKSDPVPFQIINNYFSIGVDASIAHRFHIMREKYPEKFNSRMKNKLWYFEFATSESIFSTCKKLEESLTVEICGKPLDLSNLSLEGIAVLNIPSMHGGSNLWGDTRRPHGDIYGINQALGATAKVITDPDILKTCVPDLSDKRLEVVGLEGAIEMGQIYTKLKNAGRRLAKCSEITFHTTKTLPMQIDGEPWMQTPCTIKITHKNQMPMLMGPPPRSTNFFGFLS

| SMILES | IC50 (human DGKα; [2]) [nM] | IC50 (human DGKζ; [4]) [nM] | IC50 (human DGKα; [6]) [nM] | EC50 ([1]; human whole blood, anti-CD3 plus anti-CD28 stimulation, 24 hours, read-out: IFN-γ Whole Blood EC50) [nM] | IC50 (human DGKζ; [7]) [nM] | EC50 [1, 3] [nM] | EC50 [1, 5] [nM] |
| --- | --- | --- | --- | --- | --- | --- | --- |
| CCC(c1ccc(OC(F)F)cc1)N1C[C@H](CC)N(c2nc(=O)n(C)c3ccc(C#N)nc23)C[C@H]1CC (stereo partly drawn) [Example 223, 4-((2S,5R)-4-(1-(4-(difluoromethoxy)phenyl)propyl)-2,5-diethylpiperazin-1-yl)-1-methyl-2-oxo-1,2-dihydropyrido[3,2-d]pyrimidine-6-carbonitrile] | 130 | 2080 |  |  |  |  | 900 |
| [2H]C([2H])([2H])Oc1ccc(C(C)N2C[C@H](CC)N(c3nc(=O)n(C)c4ccc(C#N)nc34)C[C@H]2CC)cc1 (single isomer, unassigned) [Example 191] | 460 | 260 |  |  |  | 290 |  |
| CCC(c1ccc(CN2CCOCC2)cc1)N1C[C@H](CC)N(c2nc(=O)n(C)c3ccc(C#N)nc23)C[C@H]1CC (stereo partly drawn) [Example 268, 4-((2S,5R)-2,5-diethyl-4-(1-(4-(morpholinomethyl)phenyl)propyl)piperazin-1-yl)-1-methyl-2-oxo-1,2-dihydropyrido[3,2-d]pyrimidine-6-carbonitrile] | 340 | 4060 |  |  |  | 1000 |  |
| CCC(c1ccc(C#N)cc1)N1C[C@H](CC)N(c2nc(=O)n(C)c3ccc(C#N)nc23)C[C@H]1CC (stereo partly drawn) [Example 220, 4-((2S,5R)-4-(1-(4-cyanophenyl)propyl)-2,5-diethylpiperazin-1-yl)-1-methyl-2-oxo-1,2-dihydropyrido[3,2-d] pyrimidine-6-carbonitrile] | 110 | 46 |  |  |  | 81 |  |
| CCC(c1ccc(C)cc1)N1C[C@H](CC)N(c2nc(=O)n(C)c3ccc(C#N)nc23)C[C@H]1CC (stereo partly drawn) [Example 237, 4-((2S,5R)-2,5-diethyl-4-(1-(p-tolyl)propyl)piperazin-1-yl)-1-methyl-2-oxo-1,2-dihydropyrido[3,2-d]pyrimidine-6-carbonitrile] | 53 | 3960 |  |  |  | 1430 |  |
| CCC(c1ccc(OC)cc1)N1C[C@H](CC)N(c2nc(=O)n(C)c3ccc(C#N)nc23)C[C@H]1CC (stereo partly drawn) [Example 212, 4-((2S,5R)-2,5-diethyl-4-(1-(4-methoxyphenyl)propyl)piperazin-1-yl)-1-methyl-2-oxo-1,2-dihydropyrido[3,2-d]pyrimidine-6-carbonitrile] | 18 | 70 |  |  |  | 22 |  |
| CC[C@H]1CN(C(C)c2ccc(CN3CCC(OC)CC3)cc2)[C@H](CC)CN1c1nc(=O)n(C)c2ccc(C#N)nc12 (single isomer, unassigned) [Example 273] | 1000 | 7330 |  |  |  | 420 |  |
| CCC(c1ccc(OCC2CC2)cc1F)N1C[C@H](CC)N(c2nc(=O)n(C)c3ccc(C#N)nc23)C[C@H]1CC (stereo partly drawn) [Example 198, 4-((2S,5R)-4-(1-(4-(cyclopropylmethoxy)-2-fluorophenyl)propyl)-2,5-diethylpiperazin-1-yl)-1-methyl-2-oxo-1,2-dihydropyrido[3,2-d]pyrimidine-6-carbonitrile] | 37 | 38 |  |  |  | 15 |  |
| CC[C@H]1CN(C(C)c2ccc(OC(C)(C)COC)cc2)[C@H](CC)CN1c1nc(=O)n(C)c2ccc(C#N)nc12 (stereo partly drawn) [Example 189] | 850 | 17000 |  |  |  | 450 |  |
| CC[C@H]1CN(C(C)c2ccc(C)nc2)[C@H](CC)CN1c1nc(=O)n(C)c2ccc(C#N)nc12 (stereo partly drawn) [Example 229, 4-((2S,5R)-2,5-diethyl-4-(1-(6-methylpyridin-3-yl)ethyl)piperazin-1-yl)-1-methyl-2-oxo-1,2-dihydropyrido[3,2-d]pyrimidine-6-carbonitrile] | 680 | 3560 |  |  |  | 1610 |  |
| CCC(c1ccc(C#N)cc1)N1C[C@H](CC)N(c2nc(=O)n(C)c3ccc(C#N)nc23)C[C@H]1CC (stereo partly drawn) [Example 221, 4-((2S,5R)-4-(1-(4-cyanophenyl)propyl)-2,5-diethylpiperazin-1-yl)-1-methyl-2-oxo-1,2-dihydropyrido[3,2-d] pyrimidine-6-carbonitrile] | 2 | 250 |  |  |  | 480 |  |
| CCCC(c1ccc(C(F)(F)F)cc1)N1C[C@H](CC)N(c2nc(=O)n(C)c3ccc(C#N)nc23)C[C@H]1CC (stereo partly drawn) [Example 243, 4-((2S,5R)-2,5-Diethyl-4-(1-(4-(trifluoromethyl)phenyl)butyl)piperazin-1-yl)-1-methyl-2-oxo-1,2-dihydropyrido[3,2-d]pyrimidine-6-carbonitrile] | 6 |  |  |  |  | 59 |  |
| CC[C@H]1CN(C(C)c2ccc(CN3CCC(F)(F)CC3)cc2)[C@H](CC)CN1c1nc(=O)n(C)c2ccc(C#N)nc12 (stereo partly drawn) [Example 278, 4-((2S,5R)-4-(1-(4-((4,4-difluoropiperidin-1-yl)methyl)phenyl)ethyl)-2,5-diethylpiperazin-1-yl)-1-methyl-2-oxo-1,2-dihydropyrido[3,2-d]pyrimidine-6-carbonitrile] | 2860 |  |  |  |  |  | 1150 |
| CCC(C1CC(F)(F)C1)N1C[C@H](C)N(c2nc(=O)n(C)c3ccc(C#N)nc23)C[C@H]1C (stereo partly drawn) [Example 458, 4-((2S,5R)-4-(1-(3,3-difluorocyclobutyl)propyl)-2,5-dimethylpiperazin-1-yl)-1-methyl-2-oxo-1,2-dihydropyrido[3,2-d]pyrimidine-6-carbonitrile] |  |  | 7740 |  | 6470 |  |  |
| CC[C@@H]1CN(c2nc(=O)n(C)c3ccc(C(F)F)nc23)[C@@H](C)CN1C(C)c1ccc(C(F)(F)F)cc1 (stereo partly drawn) [Example 442, 6-(difluoromethyl)-4-((2S,5R)-5-ethyl-2-methyl-4-(1-(4-(trifluoromethyl)phenyl)ethyl)piperazin-1-yl)-1-methylpyrido[3,2-d]pyrimidin-2(1H)-one] |  |  | 280 |  | 910 |  |  |

The next lines start with results.

| IC50 (human DGKα; [2]) [nM] | IC50 (human DGKζ; [4]) [nM] | IC50 (human DGKα; [6]) [nM] | EC50 ([1]; human whole blood, anti-CD3 plus anti-CD28 stimulation, 24 hours, read-out: IFN-γ Whole Blood EC50) [nM] | IC50 (human DGKζ; [7]) [nM] | SMILES | EC50 [1, 3] [nM] | EC50 [1, 5] [nM] |
| --- | --- | --- | --- | --- | --- | --- | --- |
| 360 | 420 |  |  |  | CC[C@H]1CN(C(C)c2ccc3oc(=O)n(C)c3c2)[C@H](CC)CN1c1nc(=O)n(C)c2ccc(C#N)nc12 (stereo partly drawn) [Example 202, 4-((2S,5R)-2,5-diethyl-4-(1-(3-methyl-2-oxo-2,3-dihydrobenzo[d]oxazol-5-yl)ethyl)piperazin-1-yl)-1-methyl-2-oxo-1,2-dihydropyrido[3,2-d]pyrimidine-6-carbonitrile] | 160 |  |
| 91 | 1030 |  |  |  | [2H]C([2H])([2H])Oc1ccc(C(CC)N2C[C@H](CC)N(c3nc(=O)n(C)c4ccc(C#N)nc34)C[C@H]2CC)cc1 (single isomer, unassigned) [Example 209] | 1280 |  |
| 81 | 140 |  |  |  | CCC(c1ccc(C(F)(F)F)nc1)N1C[C@H](CC)N(c2nc(=O)n(C)c3ccc(C#N)nc23)C[C@H]1CC (stereo partly drawn) [Example 224, 4-((2S,5R)-2,5-diethyl-4-(1-(6-(trifluoromethyl)pyridin-3-yl)propyl)piperazin-1-yl)-1-methyl-2-oxo-1,2-dihydropyrido[3,2-d]pyrimidine-6-carbonitrile] | 120 |  |
| 2450 | 1790 |  |  |  | CC[C@H]1CN(C(C)c2cnc(C(F)(F)F)nc2)[C@H](CC)CN1c1nc(=O)n(C)c2ccc(C#N)nc12 (stereo partly drawn) [Example 227, 4-((2S,5R)-2,5-diethyl-4-(1-(2-(trifluoromethyl)pyrimidin-5-yl)ethyl)piperazin-1-yl)-1-methyl-2-oxo-1,2-dihydropyrido[3,2-d]pyrimidine-6-carbonitrile] | 640 |  |
| 160 | 900 |  |  |  | CCC(c1ccc(C2CC2)cc1)N1C[C@H](CC)N(c2nc(=O)n(C)c3ccc(C#N)nc23)C[C@H]1CC (stereo partly drawn) [Example 201, 4-((2S,5R)-4-(1-(4-cyclopropylphenyl)propyl)-2,5-diethylpiperazin-1-yl)-1-methyl-2-oxo-1,2-dihydropyrido[3,2-d]pyrimidine-6-carbonitrile] |  | 230 |
|  |  | 4 | 150 | 43 | CC[C@H]1CN(C(c2ccc(F)cc2)c2noc(C3CC3)n2)[C@H](CC)CN1c1nc(=O)n(C)c2ccc(C#N)nc12 (single isomer, unassigned) [Example 372] |  |  |
| 94 | 2230 |  |  |  | CCC(c1ccc(Cl)cc1F)N1C[C@H](CC)N(c2nc(=O)n(C)c3ccc(C#N)nc23)C[C@H]1CC (stereo partly drawn) [Example 239, 4-((2S,5R)-4-(1-(4-chloro-2-fluorophenyl)propyl)-2,5-diethylpiperazin-1-yl)-1-methyl-2-oxo-1,2-dihydropyrido[3,2-d]pyrimidine-6-carbonitrile] | 2850 |  |
| 130 | 430 |  |  |  | CCC(c1ccc(C2CC2)cc1)N1C[C@H](C)N(c2nc(=O)n(C)c3ccc(C#N)nc23)C[C@H]1CC (stereo partly drawn) [Example 301, 4-((2S,5R)-4-(1-(4-cyclopropylphenyl)propyl)-5-ethyl-2-methylpiperazin-1-yl)-1-methyl-2-oxo-1,2-dihydropyrido[3,2-d]pyrimidine-6-carbonitrile] |  |  |
| 270 | 610 |  |  |  | CC[C@@H]1CN(c2nc(=O)n(C)c3ccc(C#N)nc23)[C@@H](CC)CN1Cc1ccc(OCC2CC2)cc1 [Example 185, 4-((2S,5R)-4-(4-(Cyclopropylmethoxy)benzyl)-2,5-diethylpiperazin-1-yl)-1-methyl-2-oxo-1,2-dihydropyrido[3,2-d]pyrimidine-6-carbonitrile] |  |  |
